Measured values taken from US4495188A, “Acylaminoquinazoline derivatives and a pharmaceutical composition containing them” (Sankyo Company Limited, priority 1980, dated 1985).
Structures can show the parent of a compound that is named as a salt. Where two headings read alike, the source gives them in different places.

Tests used:
[1] = molecular target: T1, angiotension I-converting enzyme (ACE) (Oryctolagus cuniculus, UniProt P12822); test: Measurement of inhibitory activity against the angiotension I-converting enzyme (ACE), hippuryl-l-histidyl-l-leucine as substrate; type: biochemical, rabbit
T1 construct: The ACE solution was prepared by homogenizing 5 g of acetone powders of rabbit lungs; tissue Sigma Chemical Co; host or cells: rabbit lung (acetone powder, borate buffer extract, 40,000 G supernatant)
T1 sequence (P12822 34-1310): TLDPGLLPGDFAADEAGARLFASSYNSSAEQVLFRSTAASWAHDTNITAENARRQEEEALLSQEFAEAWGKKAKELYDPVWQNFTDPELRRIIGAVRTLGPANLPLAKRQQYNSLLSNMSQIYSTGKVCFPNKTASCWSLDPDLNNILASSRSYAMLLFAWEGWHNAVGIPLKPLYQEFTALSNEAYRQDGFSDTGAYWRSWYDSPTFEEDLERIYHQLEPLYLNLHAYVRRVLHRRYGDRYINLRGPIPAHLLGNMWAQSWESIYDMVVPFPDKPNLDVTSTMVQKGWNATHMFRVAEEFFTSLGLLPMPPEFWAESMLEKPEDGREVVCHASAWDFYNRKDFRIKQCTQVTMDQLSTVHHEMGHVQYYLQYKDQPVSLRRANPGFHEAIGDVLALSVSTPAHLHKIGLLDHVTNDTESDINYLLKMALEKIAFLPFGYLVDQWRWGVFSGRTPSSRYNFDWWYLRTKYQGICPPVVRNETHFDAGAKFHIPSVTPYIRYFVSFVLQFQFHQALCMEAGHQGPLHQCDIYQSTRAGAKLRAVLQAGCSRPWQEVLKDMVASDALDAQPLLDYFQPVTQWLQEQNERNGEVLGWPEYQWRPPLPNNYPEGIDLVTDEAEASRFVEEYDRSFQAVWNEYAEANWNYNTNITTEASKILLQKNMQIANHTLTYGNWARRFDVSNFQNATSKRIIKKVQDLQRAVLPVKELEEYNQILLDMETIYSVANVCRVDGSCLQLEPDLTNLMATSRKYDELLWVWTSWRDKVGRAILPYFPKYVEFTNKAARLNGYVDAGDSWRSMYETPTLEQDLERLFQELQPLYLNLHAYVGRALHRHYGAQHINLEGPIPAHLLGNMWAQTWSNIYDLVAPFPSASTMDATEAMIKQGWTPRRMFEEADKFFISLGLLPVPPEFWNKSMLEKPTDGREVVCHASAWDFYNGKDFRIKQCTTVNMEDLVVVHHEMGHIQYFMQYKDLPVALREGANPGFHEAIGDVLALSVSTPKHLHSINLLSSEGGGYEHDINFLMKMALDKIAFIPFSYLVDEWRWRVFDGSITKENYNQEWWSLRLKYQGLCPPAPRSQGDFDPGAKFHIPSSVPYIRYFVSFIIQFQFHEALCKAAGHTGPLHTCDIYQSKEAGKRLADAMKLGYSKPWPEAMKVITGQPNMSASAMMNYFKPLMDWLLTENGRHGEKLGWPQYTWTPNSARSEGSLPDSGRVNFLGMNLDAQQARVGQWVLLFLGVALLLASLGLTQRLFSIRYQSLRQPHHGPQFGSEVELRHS
Protocol: The inhibitory activities of compounds of the invention and of the known compound, prazosin, against the angiotension I-converting enzyme (ACE) were measured by the method of D. W. Cushman and H. S. Cheung [Biochem. Pharmacol. 20, 637 (1971)], using hippuryl-l-histidyl-l-leucine as a substrate. The reaction mixture consisted of 225 μl of a 0.1 M borate buffer solution (pH 8.3) containing 0.4 M sodium chloride, 25 μl of the substrate (12.5 mM solution), 25 μl of a partially purified ACE and 25 μl of a test compound solution (prepared from a 1 mg/ml aqueous acetone solution of the compound). This reaction mixture was maintained at 37° C. for 30 minutes, after which 300 μl of 1N hydrochloric acid were added in order to stop the reaction. 2 ml of ehtyl acetate were then added and the mixture was stirred for 10 seconds and then centrifuged at 3,000 rpm for 5 minutes. 1.5 ml of the ethyl acetate layer was separated and concentrated by evaporation to dryness. The residue was dissolved in 1 ml of distilled water and the quantity of hippuric acid in this solution was measured from its absorbance at 228 mμ, using a spectrophotometer.
The ACE solution was prepared by homogenizing 5 g of acetone powders of rabbit lungs (a product of Sigma Chemical Co., U.S.A., prepared by homogenizing rabbit lungs in a buffer solution and separating out the enzymes precipitated with acetone) in 50 ml of a borate buffer solution (pH 8.3), centrifuging the mixture at 40,000 G for 30 minutes and then separating the supernatant.
The inhibitory activity against ACE was calculated from the formula: [formula] in which Ac is the absorbance of the control and As is the absorbance of the sample. Inhibition curves were made for each sample by measuring the inhibitory activity at five different concentrations, prepared by two-fold dilutions. The IC50 values, which are the molar concentrations of the compounds required to inhibit the ACE activity by 50%, were calculated for each compound.

[2] = system: angiotensin I-converting enzyme; conditions: reported by Cushman et al.; cited from earlier work
hypertensive animals = conditions: reported by Cushman et al.; cited from earlier work
[3] = pH 8.3, 37° C., 30 minutes, partially purified ACE from rabbit lungs, read-out: Inhibitory concentration IC50

Row | SMILES | IC50 [1, 3] | further results
1 | C[C@H](CS)C(=O)N1CCC[C@H]1C(=O)O [1-(D-3-mercapto-2-methylpropanoyl)-L-proline] | – | inhibitory activity against the angiotensin I-converting enzyme [2]: potent inhibitory activity; antihypertensive activity (hypertensive animals): exhibits antihypertensive activity
2 | CCOC(=O)N1CCN(c2nc(NC(=O)[C@@H]3CCCN3C(=O)[C@H](C)CSC(C)=O)c3cc(OC)c(OC)cc3n2)CC1 [Example 1, 4[1-(D-3-Acetylthio-2-methylpropanoyl)-L-prolyl]amino-2-(4-ethoxycarbonyl-1-piperazinyl)-6,7-dimethoxy-quinazoline hydrochloride hemihydrate] | 416 nM | –
3 | C/C=C/C(=O)N1CCN(c2nc(NC(=O)[C@@H]3CCCN3C(=O)[C@H](C)CSC(C)=O)c3cc(OC)c(OC)cc3n2)CC1 [Example 2, 4[1-(D-3-Acetylthio-2-methylpropanoyl)-L-prolyl]amino-2-(4-crotonoyl-1-piperazinyl)-6,7-dimethoxyquinazoline. hydrochloride hydrate] | 360 nM | –
4 | COc1cc2nc(N3CCN(C(=O)c4ccco4)CC3)nc(N)c2cc1OC [prazosin, reference compound] | – | IC50 [1]: ≥ 10000 nM

Further lines, with some results ahead:

Row | IC50 [1, 3] | SMILES | further results
5 | 1410 nM | CCOC(=O)N1CCN(c2nc(NC(=O)C3CSCN3C(=O)C(C)CSC(C)=O)c3cc(OC)c(OC)cc3n2)CC1 (racemic) [Example 6, 4-[3-(DL-3-Acetylthio-2-methylpropanoyl)thiazolidine-4-carbonyl]amino-2-(4-ethoxycarbonyl-1-piperazinyl)-6,7-dimethoxyquinazoline hydrochloride hemihydrate] | –
6 | 341 nM | COc1cc2nc(N3CCN(C(=O)C(C)Oc4ccccc4)CC3)nc(NC(=O)[C@@H]3CCCN3C(=O)[C@H](C)CSC(C)=O)c2cc1OC (stereo partly drawn) [Example 3, 4-[1-(D-3-Acetylthio-2-methylpropanoyl)-L-prolyl]amino-6,7-dimethoxy-2[4-(2-phenoxypropionyl)-1-piperazinyl]quinazoline hydrochloride hydrate] | –
7 | 445 nM | COc1cc2nc(N3CCN(C(=O)c4ccc(OCc5ccccc5)cc4)CC3)nc(NC(=O)[C@@H]3CCCN3C(=O)[C@H](C)CSC(C)=O)c2cc1OC [Example 4, 4-[1-(D-3-Acetylthio-2-methylpropanoyl)-L-prolyl]amino-2-[4-(4-benzyloxybenzoyl)-1-piperazinyl]-6,7-dimethoxy-quinazcline hydrochloride sesquihydrate] | –
8 | 261 nM | COc1ccc(C(=O)N2CCN(c3nc(NC(=O)[C@@H]4CCCN4C(=O)[C@H](C)CSC(C)=O)c4cc(OC)c(OC)cc4n3)CC2)cc1OC [Example 5, 4-[1-(D-3-Acetylthio-2-methylpropanoyl)-L-prolyl]amino-2-(4-(3,4-dimethoxybenzoyl)-1-piperazinyl]-6,7-dimethoxy-quinazoline hydrochloride sesquihydrate] | –
9 | 310 nM | COc1cc2nc(N3CCN(C(=O)c4ccco4)CC3)nc(NC(=O)[C@@H]3CCCN3C(=O)[C@H](C)CSC(C)=O)c2cc1OC [Example 7, 4-[1-(D-3-Acetylthio-2-methylpropanoyl)-L-prolyl]amino-2-[4-(2-furoyl)-1-piperazinyl]-6,7-dimethoxyquinazoline.hydrochloride.hydrate] | –
